The results in this text go back to patent US20240376097A1, “BCL-2 Inhibitor” (BeiGene Ltd., priority 2020, published 2024).

Where two headings read alike, the source gives them in different places.

The target of experiment [1] is Recombinant human Bcl-2 protein (Homo sapiens (Human), UniProt P10415). The experiment is described as follows: Bcl-2 TR-FRET Assay. In kind it is binding. A digest of the protocol:
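TR-FRET read (337 nm excitation, 520/490 nm emission) after 1 h with 0.5 nM FITC-labeled Bak peptide and Tb-cryptate anti-6His antibody. Bcl-2 at 0.05 nM had been pre-incubated 0.5 h with compound. IC50 fitted by four-parameter logistic equation.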

The target in experiment [2] is recombinant human Bcl-2-G101V protein (Homo sapiens (Human), UniProt P10415, G101V). As to the kind of experiment: Bcl-2-G101V TR-FRET Assay. In kind it is binding. Conditions: Bcl-2 G101V mutant, TR-FRET; read-out: Biochemical assay (IC50, nM) Bcl-2 G101V. The method in brief: (§1)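 Ex337/em490 & 520 nm TR-FRET; % inhibition of Bcl-2-G101V–ligand interaction from 490:520 ratio vs. increasing compound conc.; IC50 by 4-parameter logistic fit.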
Background: Time-resolved FRET reads energy transfer from a long-lived donor to a nearby acceptor.

The test system of experiment [3] is recombinant human Bcl-2-G101V protein. As to the kind of experiment: Bcl-2-G101V TR-FRET Assay. In kind it is binding. Conditions: ratio of biochemical IC50 Bcl-2 G101V / Bcl-2 WT. The method in brief: as §1
Experiment [4] relates to RS4;11 (BCL-2 dependent acute lymphoblastic leukemia cell line). As to the kind of experiment: RS4;11 Cell Proliferation Assay. Conditions: Homo sapiens, RS4-11, RS4;11 cells, read-out: Cellular proliferation assay (IC50, nM) RS4. It is filed as cell-based. A digest of the protocol:
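Viability measured via CellTiter-Glo luminescence after a 48 h, 37 °C exposure to compounds (10 points, highest 1 μM). Seeding was 50,000 RS4;11 cells per well in 10% FBS RPMI-1640; IC50 given as mean.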

The subject of experiment [5] is BCL-2 G101V knock-in cell line H96 (derive from RS4;11). As to the kind of experiment: Bcl 2-G101V Knock-In RS4;11 Cell Proliferation Assay. In kind it is cell-based. Conditions: Homo sapiens, RS4;11 Bcl-2 G101V knock-in clone H96, 48 hrs, CellTiter-GLO, read-out: Cellular proliferation assay (IC50, nM) RS4. A digest of the protocol:
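CellTiter-Glo luminescence after 48 h, 37 °C compound treatment (10 concentrations, maximum 1 μM or 10 μM) gave mean IC50 values. Cells were 50,000 per well of H96, a BCL2-G101V knock-in single clone derived from RS4;11 by Cas9 editing.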
(In ATP-based viability assays light output follows the ATP content of the culture.)

In experiment [6] the target is recombinant human Bcl-2 D103Y protein (Homo sapiens (Human), UniProt P10415, D103Y). As to the kind of experiment: Bcl-2-D103Y Biochemical Assay (TR-FRET). In kind it is binding. Conditions: for IC50: TR-FRET, FITC labeled Bak peptide; for Ratio of Bcl-2 D103Y/Bcl-2 WT: ratio of IC50. The method in brief:
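Compounds titrated against the Bcl-2 D103Y–ligand interaction; inhibition derived from the TR-FRET emission ratio 490 nm/520 nm after 337 nm excitation. Four-parameter logistic fitting gave IC50.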

[7] abbreviates: Bcl-2 wild type, TR-FRET, read-out: Biochemical assay (IC50, nM) Bcl-2 WT.
Where [8] appears, read: wild type Bcl-2, unit inferred, read-out: Bcl-2 WT.

With `COc1cc(CN2CCN(C3CC4(CCN(c5ccc(C(=O)NS(=O)(=O)c6ccc(NC[C@H]7CC[C@](C)(O)CC7)c([N+](=O)[O-])c6)c(Oc6cnc7[nH]ccc7c6)c5)CC4)C3)C(c3ccccc3C(C)C)C2)cc(C)c1OC` (stereo partly drawn) [Example 158], the IC50 was 0.27 nM in experiment [1] (setting [7]); 0.27 nM in experiment [1] (setting [8]); 0.75 nM in experiment [2]; 0.322 nM in experiment [4]; 1.52 nM in experiment [5]; 0.37 nM in experiment [6]. In experiment [3], the “Ratio of Bcl-2 G101V/WT” value was determined as 2.8. The “Ratio of Bcl-2 D103Y/Bcl-2 WT” value in experiment [6] came to 1.3.
For the compound `C#Cc1ccc(CN2CCN(C3CC4(CCN(c5ccc(C(=O)NS(=O)(=O)c6ccc(NC[C@H]7CC[C@](C)(O)CC7)c([N+](=O)[O-])c6)c(Oc6cnc7[nH]ccc7c6)c5)CC4)C3)C(c3ccccc3C(C)C)C2)cc1OC` (stereo partly drawn) [Example 162], the IC50 in experiment [1] (setting [7]) is 0.38 nM; in experiment [1] (setting [8]), 0.38 nM; in experiment [2] it was 1.5 nM; in experiment [4] it was 0.373 nM; in experiment [5] it was 2.04 nM; in experiment [6] it was 0.61 nM. Also, the “Ratio of Bcl-2 G101V/WT” value in experiment [3] is 3.8. In addition, in experiment [6], the “Ratio of Bcl-2 D103Y/Bcl-2 WT” value was found to be 1.6.
Turning to `COc1ccc(CN2CCN(C3CC4(C3)CN(c3ccc(C(=O)NS(=O)(=O)c5ccc(NC[C@H]6CC[C@](C)(O)CC6)c([N+](=O)[O-])c5)c(Oc5cnc6[nH]cc(Cl)c6c5)c3)C4)[C@H](c3ccccc3C(C)C)C2)cc1OC` [Example 164, 2-((3-chloro-1H-pyrrolo[2,3-b]pyridin-5-yl)oxy)-4-(6-((R)-4-(3,4-dimethoxybenzyl)-2-(2-isopropylphenyl)piperazin-1-yl)-2-azaspiro[3.3]heptan-2-yl)-N-((4-((((1r,4r)-4-hydroxy-4-methylcyclohexyl)methyl)amino)-3-nitrophenyl)sulfonyl)benzamide], the IC50 in experiment [1] (setting [7]) was 0.12 nM; in experiment [1] (setting [8]), 0.12 nM; in experiment [2] it was 0.35 nM; in experiment [4], 0.23 nM; in experiment [5] it was 0.82 nM; in experiment [6], 0.12 nM. Also, in experiment [3], the “Ratio of Bcl-2 G101V/WT” value worked out at 3. For the same compound, the “Ratio of Bcl-2 D103Y/Bcl-2 WT” value in experiment [6] turned out to be 1.
Take `COc1ccc(CN2CCN(C3CC4(CCN(c5ccc(C(=O)NS(=O)(=O)c6ccc(NC[C@H]7CC[C@](C)(O)CC7)c([N+](=O)[O-])c6)c(Oc6cnc7[nH]cc(Cl)c7c6)c5)CC4)C3)[C@H](c3ccccc3C(C)C)C2)cc1OC` [Example 174, 2-((3-chloro-1H-pyrrolo[2,3-b]pyridin-5-yl)oxy)-4-(2-((R)-4-(3,4-dimethoxybenzyl)-2-(2-isopropylphenyl)piperazin-1-yl)-7-azaspiro[3.5]nonan-7-yl)-N-((4-((((1r,4r)-4-hydroxy-4-methylcyclohexyl)methyl)amino)-3-nitrophenyl)sulfonyl)benzamide]: the IC50 in experiment [1] (setting [7]) came to 0.096 nM; in experiment [1] (setting [8]), 0.096 nM; in experiment [2], 0.59 nM; in experiment [4] it was 0.18 nM; in experiment [5] it was 0.49 nM; in experiment [6] it was 0.14 nM. The “Ratio of Bcl-2 G101V/WT” value in experiment [3] amounted to 6.1. In addition, the “Ratio of Bcl-2 D103Y/Bcl-2 WT” value in experiment [6] is reported as 1.4.
Take `COc1cc(CN2CCN(C3CC4(CCN(c5ccc(C(=O)NS(=O)(=O)c6ccc(NC[C@H]7CC[C@](C)(O)CC7)c([N+](=O)[O-])c6)c(Oc6cnc7[nH]ccc7c6)c5)CC4)C3)C(c3ccccc3C(C)C)C2)cnc1OC` (stereo partly drawn) [Example 176, 2-((1H-pyrrolo[2,3-b]pyridin-5-yl)oxy)-4-(2-(4-((5,6-dimethoxypyridin-3-yl)methyl)-2-(2-isopropylphenyl)piperazin-1-yl)-7-azaspiro[3.5]nonan-7-yl)-N-((4-((((1r,4r)-4-hydroxy-4-methylcyclohexyl)methyl)amino)-3-nitrophenyl)sulfonyl)benzamide]: the IC50 in experiment [1] (setting [7]) came to 0.035 nM; in experiment [1] (setting [8]), 0.035 nM; in experiment [2], 0.15 nM; in experiment [4], 0.39 nM; in experiment [5], 1 nM; in experiment [6] it was 0.061 nM. In addition, the “Ratio of Bcl-2 G101V/WT” value in experiment [3] is 4.3. In addition, the “Ratio of Bcl-2 D103Y/Bcl-2 WT” value in experiment [6] is recorded as 1.7.
Consider `COc1cc(CN2CCN(C3CC4(C3)CN(c3ccc(C(=O)NS(=O)(=O)c5ccc(NC[C@H]6CC[C@](C)(O)CC6)c([N+](=O)[O-])c5)c(Oc5cnc6[nH]cc(F)c6c5)c3)C4)[C@H](c3ccccc3C(C)C)C2)ccc1F` [Example 184, 2-((3-fluoro-1H-pyrrolo[2,3-b]pyridin-5-yl)oxy)-4-(6-((R)-4-(4-fluoro-3-methoxybenzyl)-2-(2-isopropylphenyl)piperazin-1-yl)-2-azaspiro[3.3]heptan-2-yl)-N-((4-((((1r,4r)-4-hydroxy-4-methylcyclohexyl)methyl)amino)-3-nitrophenyl)sulfonyl)benzamide], for which the IC50 in experiment [1] (setting [7]) is 0.19 nM; in experiment [1] (setting [8]), 0.19 nM; in experiment [2] it was 0.53 nM; in experiment [4] it was 0.16 nM; in experiment [5], 0.44 nM; in experiment [6], 0.19 nM. Further, in experiment [3], the “Ratio of Bcl-2 G101V/WT” value turned out to be 2.9. Further, in experiment [6], the “Ratio of Bcl-2 D103Y/Bcl-2 WT” value stood at 1.
Consider `COc1ccc(CN2CCN(C3CC4(CCN(c5ccc(C(=O)NS(=O)(=O)c6ccc(NC[C@H]7CC[C@](C)(O)CC7)c([N+](=O)[O-])c6)c(Oc6cnc7[nH]ccc7c6)c5)CC4)C3)[C@H](c3ccccc3C(C)C)C2)cn1` [Example 185, 2-((1H-pyrrolo[2,3-b]pyridin-5-yl)oxy)-N-((4-((((1r,4r)-4-hydroxy-4-methylcyclohexyl)methyl)amino)-3-nitrophenyl)sulfonyl)-4-(2-((R)-2-(2-isopropylphenyl)-4-((6-methoxypyridin-3-yl)methyl)piperazin-1-yl)-7-azaspiro[3.5]nonan-7-yl)benzamide], for which the IC50 in experiment [1] (setting [7]) was determined as 0.031 nM; in experiment [1] (setting [8]), 0.031 nM; in experiment [2] it was 0.14 nM; in experiment [4] it was 0.14 nM; in experiment [5] it was 0.6 nM; in experiment [6] it was 0.05 nM. Further, the “Ratio of Bcl-2 G101V/WT” value in experiment [3] is reported as 4.5. The “Ratio of Bcl-2 D103Y/Bcl-2 WT” value in experiment [6] worked out at 1.6.
Turning to `COc1cc(CN2CCN(C3CC4(CCN(c5ccc(C(=O)NS(=O)(=O)c6ccc(NC[C@H]7CC[C@](C)(O)CC7)c([N+](=O)[O-])c6)c(Oc6cnc7[nH]cc(F)c7c6)c5)CC4)C3)[C@H](c3ccccc3C(C)C)C2)ccc1F` [Example 190, 2-((3-fluoro-1H-pyrrolo[2,3-b]pyridin-5-yl)oxy)-4-(2-((R)-4-(4-fluoro-3-methoxybenzyl)-2-(2-isopropylphenyl)piperazin-1-yl)-7-azaspiro[3.5]nonan-7-yl)-N-((4-((((1r,4r)-4-hydroxy-4-methylcyclohexyl)methyl)amino)-3-nitrophenyl)sulfonyl)benzamide], the IC50 is 0.23 nM in experiment [1] (setting [7]); 0.23 nM in experiment [1] (setting [8]); 0.62 nM in experiment [2]; 0.13 nM in experiment [4]; 0.37 nM in experiment [5]; 0.34 nM in experiment [6]. Moreover, the “Ratio of Bcl-2 G101V/WT” value in experiment [3] is listed as 2.7. In addition, the “Ratio of Bcl-2 D103Y/Bcl-2 WT” value in experiment [6] is reported as 1.5.
On to `COc1ccc(CN2CCN(C3CC4(CCN(c5ccc(C(=O)NS(=O)(=O)c6ccc(NC[C@H]7CC[C@](C)(O)CC7)c([N+](=O)[O-])c6)c(Oc6cnc7[nH]ccc7c6)c5)CC4)C3)C(c3ccccc3C(C)C)C2)nc1OC` (stereo partly drawn) [Example 194, 2-((1H-pyrrolo[2,3-b]pyridin-5-yl)oxy)-4-(2-(4-((5,6-dimethoxypyridin-2-yl)methyl)-2-(2-isopropylphenyl)piperazin-1-yl)-7-azaspiro[3.5]nonan-7-yl)-N-((4-((((1r,4r)-4-hydroxy-4-methylcyclohexyl)methyl)amino)-3-nitrophenyl)sulfonyl)benzamide], for which the IC50 in experiment [1] (setting [7]) stood at 0.051 nM; in experiment [1] (setting [8]), 0.051 nM; in experiment [2], 0.16 nM; in experiment [4], 0.3 nM; in experiment [5], 0.82 nM; in experiment [6] it was 0.072 nM. Further, the “Ratio of Bcl-2 G101V/WT” value in experiment [3] is 3.1. Further, the “Ratio of Bcl-2 D103Y/Bcl-2 WT” value in experiment [6] was 1.4.
